Measurements as given in patent US9108929B2, “Quinazoline based EGFR inhibitors” (Curis, Inc., priority 2006, dated 2015).

Tests used:
[1] = target: T1, human EGFR (His672-Ala1210) (Homo sapiens, UniProt P00533); experiment: EGFR kinase inhibition assay (HTScan EGF Receptor Kinase Assay Kit); assay type: biochemical
T1 construct: a construct expressing human EGFR (His672-Ala1210); GST (N); purchased Cell Signaling Technologies; host or cells: baculovirus expression system
Procedure: The ability of compounds to inhibit receptor kinase (EGFR) activity can be assayed using HTSCAN™ EGF Receptor Kinase Assay Kits (Cell Signaling Technologies, Danvers, Mass.). […] The protein is purified by one-step affinity chromatography using glutathione-agarose.
Immediately transfer enzyme from −80° C. to ice. Allow enzyme to thaw on ice. […] Return immediately to ice. […] Incubate reaction plate at room temperature for 30 minutes. […] Add 100 μl/well primary antibody. Incubate at room temperature for 60 minutes. […] Add 100 μl/well diluted antibody. Incubate at room temperature for 30 minutes. Wash five times with 200 μl/well PBS/T. Add 100 μl/well DELFIA® Enhancement Solution. Incubate at room temperature for 5 minutes.

[2] = system: HDAC (HeLa nuclear extract); experiment: HDAC fluorimetric assay (HDAC enzymatic activity); assay type: biochemical
Procedure: HDAC inhibitors are screened using an HDAC fluorimetric assay kit (AK-500, Biomol, Plymouth Meeting, Pa.).
Each assay is setup as follows: Defrost all kit components and keep on ice until use. Dilute HeLa nuclear extract 1:29 in Assay Buffer (50 mM Tris/Cl, pH 8.0, 137 mM NaCl, 2.7 mM KCl, 1 mM MgCl2). Prepare dilutions of Trichostatin A (TSA, positive control) and test compounds in assay buffer (5× of final concentration). Dilute Fluor de Lys™ Substrate in assay buffer to 100 uM (50 fold=2× final). Dilute Fluor de Lys™ developer concentrate 20-fold (e.g. 50 μl plus 950 μl Assay Buffer) in cold assay buffer. Second, dilute the 0.2 mM Trichostatin A 100-fold in the 1× Developer (e.g. 10 μl in 1 ml; final Trichostatin A concentration in the 1× Developer=2 μM; final concentration after addition to HDAC/Substrate reaction=1 μM). Add Assay buffer, diluted trichostatin A or test inhibitor to appropriate wells of the microtiter plate. Add diluted HeLa extract or other HDAC sample to all wells except for negative controls. Allow diluted Fluor de Lys™ Substrate and the samples in the microtiter plate to equilibrate to assay temperature (e.g. 25 or 37° C. Initiate HDAC reactions by adding diluted substrate (25 μl) to each well and mixing thoroughly.
Allow HDAC reactions to proceed for 1 hour and then stopped them by addition of Fluor de Lys™ Developer (50 μl). Incubate plate at room temperature (25° C.) for 10-15 min. Read samples in a microtiter-plate reading fluorimeter capable of excitation at a wavelength in the range 350-380 nm and detection of emitted light in the range 440-460 nm.

HER2/ErbB2 = HER2/ErbB2 (Homo sapiens, UniProt P04626); experiment: HER2/ErbB2 inhibition; assay type: biochemical
Chain of HER2/ErbB2 (P04626 23-1255): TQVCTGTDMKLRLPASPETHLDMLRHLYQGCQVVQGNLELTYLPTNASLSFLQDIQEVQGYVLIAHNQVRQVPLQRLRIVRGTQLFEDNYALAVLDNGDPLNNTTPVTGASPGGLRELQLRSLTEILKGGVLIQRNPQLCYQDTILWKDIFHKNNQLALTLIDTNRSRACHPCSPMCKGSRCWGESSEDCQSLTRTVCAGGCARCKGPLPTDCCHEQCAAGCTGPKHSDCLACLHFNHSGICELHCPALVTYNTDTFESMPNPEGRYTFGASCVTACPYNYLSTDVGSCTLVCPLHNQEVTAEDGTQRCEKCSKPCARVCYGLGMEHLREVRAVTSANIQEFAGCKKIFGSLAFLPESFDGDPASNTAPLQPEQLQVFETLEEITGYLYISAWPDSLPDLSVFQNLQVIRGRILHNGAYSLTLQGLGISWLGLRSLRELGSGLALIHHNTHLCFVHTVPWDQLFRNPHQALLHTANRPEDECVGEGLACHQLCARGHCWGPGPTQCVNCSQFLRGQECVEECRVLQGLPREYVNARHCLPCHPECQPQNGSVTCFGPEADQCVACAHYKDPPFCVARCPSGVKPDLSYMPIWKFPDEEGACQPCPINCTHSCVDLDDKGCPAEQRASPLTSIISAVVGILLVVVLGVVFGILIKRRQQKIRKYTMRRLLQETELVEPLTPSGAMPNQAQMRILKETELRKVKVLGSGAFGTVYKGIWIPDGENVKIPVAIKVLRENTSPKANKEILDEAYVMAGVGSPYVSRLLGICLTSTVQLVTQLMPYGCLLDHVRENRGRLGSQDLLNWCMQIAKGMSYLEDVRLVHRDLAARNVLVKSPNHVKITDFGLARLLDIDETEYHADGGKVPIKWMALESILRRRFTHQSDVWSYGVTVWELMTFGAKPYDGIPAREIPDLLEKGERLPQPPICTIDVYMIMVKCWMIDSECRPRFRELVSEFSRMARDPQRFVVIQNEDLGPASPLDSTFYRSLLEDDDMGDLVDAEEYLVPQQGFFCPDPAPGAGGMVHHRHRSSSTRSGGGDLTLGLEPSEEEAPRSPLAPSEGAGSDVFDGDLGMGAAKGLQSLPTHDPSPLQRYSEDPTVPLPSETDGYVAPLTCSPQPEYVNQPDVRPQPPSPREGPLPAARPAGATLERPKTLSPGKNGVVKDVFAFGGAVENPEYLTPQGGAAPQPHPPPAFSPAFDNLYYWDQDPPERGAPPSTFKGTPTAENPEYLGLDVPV

T1 sequence (P00533 672-1210): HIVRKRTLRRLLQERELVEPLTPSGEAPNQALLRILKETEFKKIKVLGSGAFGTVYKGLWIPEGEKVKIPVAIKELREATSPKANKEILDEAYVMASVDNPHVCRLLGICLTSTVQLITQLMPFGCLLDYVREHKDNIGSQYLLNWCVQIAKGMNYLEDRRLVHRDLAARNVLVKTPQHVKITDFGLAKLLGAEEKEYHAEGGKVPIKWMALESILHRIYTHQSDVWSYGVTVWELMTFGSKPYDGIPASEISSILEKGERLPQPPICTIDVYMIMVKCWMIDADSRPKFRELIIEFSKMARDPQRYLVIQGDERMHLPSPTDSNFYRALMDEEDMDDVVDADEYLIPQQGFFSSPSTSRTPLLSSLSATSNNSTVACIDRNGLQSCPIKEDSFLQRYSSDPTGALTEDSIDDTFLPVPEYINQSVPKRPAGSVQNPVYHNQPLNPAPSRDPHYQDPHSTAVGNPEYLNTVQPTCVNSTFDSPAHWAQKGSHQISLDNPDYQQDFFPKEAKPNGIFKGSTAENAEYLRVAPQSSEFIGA

| SMILES | IC50 [1] | IC50 [2] | melting point | IC50 (HER2/ErbB2) |
| --- | --- | --- | --- | --- |
| C#Cc1cccc(Nc2ncnc3cc(OC)c(OCCCCC(=O)O)cc23)c1 | < 100 nM | – | – | – |
| CCOC(=O)COc1ccc2ncnc(Nc3ccc(F)c(Cl)c3)c2c1 [Compound 0210-13, Ethyl 2-(4-(3-chloro-4-fluorophenylamino)quinazolin-6-yloxy)acetate] | – | – | 161 to 163 °C | – |
| C#Cc1cccc(Nc2ncnc3cc(OC)c(OCCCCCCC(=O)O)cc23)c1 | < 100 nM | > 10000 nM | – | 100 to 1000 nM |

Second part, the compound after the results:

| IC50 [1] | IC50 [2] | melting point | IC50 (HER2/ErbB2) | SMILES |
| --- | --- | --- | --- | --- |
| < 100 nM | > 10000 nM | – | – | C#Cc1cc(Nc2ncnc3cc(OC)c(OCCCCCCC(=O)O)cc23)ccc1O |
| – | > 10000 nM | – | – | C#Cc1cc(Nc2ncnc3cc(OC)c(OCCCCC(=O)O)cc23)ccc1O |
